Earlier results as cited in patent publication US11122828B2, “Microbial compositions comprising ellagitannin and methods of use” (MarvelBiome, Inc., priority 2018, dated 2021).
Where two headings read alike, the source gives them in different places. Each block holds one compound with its values, some of them ahead of it.

What was measured:
[1] = tested on: inflammatory markers including inducible nitric oxide synthase, cycloxygenase-2 (COX-2), prostaglandin E synthase and prostaglandin E2; conditions: rat colitis model
colon cancer cells = conditions: in vitro
[2] = plasma concentration up to micromolar (μM) levels

Compound: O=c1oc2cc(O)ccc2c2ccc(O)cc12 [urolithin A, 3,8-dihydroxyurolithin]
inflammatory markers in colonic mucosa [1]: decrease inflammatory markers | proliferation of colon cancer cells (colon cancer cells): inhibit proliferation | toxic effects in vivo [2]: without any apparent toxic effects

bioavailability (in vivo): 0.3%
Compound: anthocyanins

bioavailability (estimated, phenols): 43%
Compound: isoflavones
